How the values were obtained:
Assay type in all cases: cell-based
M2 muscarinic receptor = target: T1, M2 muscarinic receptor (Homo sapiens, UniProt P08172); experiment: Functional mobilization of intracellular calcium (FLIPR), M2-CHO cells; conditions: for M2 Activity: M2-CHO cells, calcium mobilization (FLIPR)
T1 construct: expressed in transfected cells; host or cells: CHO (M2-CHO)
T1 sequence (P08172 1-466): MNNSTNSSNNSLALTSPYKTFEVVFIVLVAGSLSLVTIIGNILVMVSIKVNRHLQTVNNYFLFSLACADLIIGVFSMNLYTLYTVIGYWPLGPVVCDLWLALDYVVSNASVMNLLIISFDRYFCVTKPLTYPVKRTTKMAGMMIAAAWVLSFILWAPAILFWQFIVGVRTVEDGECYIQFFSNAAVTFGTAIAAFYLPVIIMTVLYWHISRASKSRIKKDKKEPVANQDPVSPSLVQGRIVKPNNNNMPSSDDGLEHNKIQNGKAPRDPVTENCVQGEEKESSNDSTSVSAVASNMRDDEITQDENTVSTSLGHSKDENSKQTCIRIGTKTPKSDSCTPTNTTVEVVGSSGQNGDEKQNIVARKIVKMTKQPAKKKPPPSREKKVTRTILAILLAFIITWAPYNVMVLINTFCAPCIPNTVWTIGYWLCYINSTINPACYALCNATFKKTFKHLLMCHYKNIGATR
In short: (§1)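 CHO cells expressing human M1–M4 receptors loaded with Fluo-3 AM or Calcium 3 dye (1 mM probenecid, pH 7.4); 0.5% DMSO final. Agonist mode: compound added directly; antagonist mode: 15 min pre-incubation or co-application, then carbachol at EC80. Fluorescence read 60 s on FLIPR; efficacy relative to carbachol maximum.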

M1 muscarinic receptor = target: T2, M1 muscarinic receptor (Homo sapiens, UniProt P11229); experiment: Functional mobilization of intracellular calcium (FLIPR), M1-CHO cells; conditions: for M1 Activity: M1-CHO cells, calcium mobilization (FLIPR)
T2 construct: expressed in transfected cells; host or cells: CHO (M1-CHO)
T2 sequence (P11229 1-460): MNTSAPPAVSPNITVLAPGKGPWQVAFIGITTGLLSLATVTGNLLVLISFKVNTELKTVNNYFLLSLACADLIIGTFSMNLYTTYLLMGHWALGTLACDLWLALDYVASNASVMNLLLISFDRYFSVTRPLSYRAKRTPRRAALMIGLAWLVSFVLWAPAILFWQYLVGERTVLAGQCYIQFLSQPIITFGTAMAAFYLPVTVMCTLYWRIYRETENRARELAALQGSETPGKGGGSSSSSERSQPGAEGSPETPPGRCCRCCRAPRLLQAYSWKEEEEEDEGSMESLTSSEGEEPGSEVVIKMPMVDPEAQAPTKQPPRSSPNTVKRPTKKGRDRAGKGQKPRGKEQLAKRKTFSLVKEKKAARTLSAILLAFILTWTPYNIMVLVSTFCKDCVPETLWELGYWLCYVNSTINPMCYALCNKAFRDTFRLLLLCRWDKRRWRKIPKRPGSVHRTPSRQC
In short: as §1

M3 muscarinic receptor = target: T3, M3 muscarinic receptor (Homo sapiens, UniProt P20309); experiment: Functional mobilization of intracellular calcium (FLIPR), M3-CHO cells; conditions: for M3 Activity: M3-CHO cells, calcium mobilization (FLIPR)
T3 construct: expressed in transfected cells; host or cells: CHO (M3-CHO)
T3 sequence (P20309 whole entry): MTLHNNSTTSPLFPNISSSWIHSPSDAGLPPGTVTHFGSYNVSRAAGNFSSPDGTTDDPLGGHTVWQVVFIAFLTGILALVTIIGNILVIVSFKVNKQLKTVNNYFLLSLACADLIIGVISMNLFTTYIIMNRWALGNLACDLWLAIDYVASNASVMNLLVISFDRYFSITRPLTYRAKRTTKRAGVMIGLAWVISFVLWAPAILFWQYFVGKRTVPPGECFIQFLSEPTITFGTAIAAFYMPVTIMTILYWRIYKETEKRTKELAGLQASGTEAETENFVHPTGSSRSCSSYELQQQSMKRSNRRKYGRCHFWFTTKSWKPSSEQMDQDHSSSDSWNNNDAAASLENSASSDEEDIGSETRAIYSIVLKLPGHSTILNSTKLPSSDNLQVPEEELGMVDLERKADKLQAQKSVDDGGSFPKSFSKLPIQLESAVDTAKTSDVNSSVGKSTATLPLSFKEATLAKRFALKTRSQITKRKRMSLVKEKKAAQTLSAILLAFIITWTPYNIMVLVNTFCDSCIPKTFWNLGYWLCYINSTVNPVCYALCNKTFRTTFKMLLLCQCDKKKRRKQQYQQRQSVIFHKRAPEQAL
In short: as §1

M4 muscarinic receptor = target: T4, M4 muscarinic receptor (Homo sapiens, UniProt P08173); experiment: Functional mobilization of intracellular calcium (FLIPR), M4-CHO cells; conditions: for M4 Activity: M4-CHO cells, calcium mobilization (FLIPR)
T4 construct: expressed in transfected cells; host or cells: CHO (M4-CHO)
T4 sequence (P08173 1-479): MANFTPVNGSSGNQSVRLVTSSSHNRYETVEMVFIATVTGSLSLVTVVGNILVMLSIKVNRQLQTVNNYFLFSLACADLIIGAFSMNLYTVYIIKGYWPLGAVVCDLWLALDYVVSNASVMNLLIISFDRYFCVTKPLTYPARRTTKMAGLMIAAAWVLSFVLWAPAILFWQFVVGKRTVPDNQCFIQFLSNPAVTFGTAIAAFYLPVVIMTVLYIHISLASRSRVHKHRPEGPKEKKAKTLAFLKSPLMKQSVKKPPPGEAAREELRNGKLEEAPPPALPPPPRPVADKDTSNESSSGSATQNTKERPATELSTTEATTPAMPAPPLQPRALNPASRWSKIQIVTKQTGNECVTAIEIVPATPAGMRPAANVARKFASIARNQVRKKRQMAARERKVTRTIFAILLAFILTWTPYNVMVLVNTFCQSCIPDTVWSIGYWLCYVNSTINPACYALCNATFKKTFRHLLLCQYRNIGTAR
In short: as §1

[1] = 100% efficacy = maximum response obtained with the Carbachol control
[2] = 100% efficacy is the maximum response obtained with the Carbachol control

Row | Compound | Emax (M2 muscarinic receptor; [1]) [%] | Emax (M1 muscarinic receptor; [1]) [%] | Emax (M3 muscarinic receptor; [1]) [%] | Emax (M4 muscarinic receptor; [1]) [%] | Emax (M2 muscarinic receptor; [2]) [%] | Emax (M1 muscarinic receptor; [2]) [%] | Emax (M3 muscarinic receptor; [2]) [%] | Emax (M4 muscarinic receptor; [2]) [%] | M2 Activity (M2 muscarinic receptor) | M1 Activity (M1 muscarinic receptor) | M3 Activity (M3 muscarinic receptor) | M4 Activity (M4 muscarinic receptor) | M2 Efficacy (M2 muscarinic receptor; [1]) | M1 Efficacy (M1 muscarinic receptor; [1]) | M3 Efficacy (M3 muscarinic receptor; [1]) | M4 Efficacy (M4 muscarinic receptor; [1])
1 | COc1ccccc1C1CCN(CC2CCOCC2)CC1 [Compound 233] | < 25 | 25 to 100 | < 25 | 25 to 100 | – | – | – | – | + (activity was measured to be greater than 5.0 μM) | + (activity was measured to be greater than 5.0 μM) | + (activity was measured to be greater than 5.0 μM) | ++ (activity was measured to be from 1.0 μM to 5.0 μM) | – | – | – | –
2 | CCOC(=O)N1C2CCC1CC(N1CCC(OC)(c3cc(Cl)ccc3OC)CC1)C2 (stereo not drawn) [Compound 390] | – | – | – | – | < 25 | 25 to 100 | < 25 | 25 to 100 | + (activity was measured to be greater than 5.0 μM) | +++ (activity was measured to be less than 1.0 μM) | + (activity was measured to be greater than 5.0 μM) | +++ (activity was measured to be less than 1.0 μM) | – | – | – | –
3 | COc1ccccc1C1CCN(C2CCN(C(C)=O)CC2)CC1 [Compound 266] | < 25 | < 25 | < 25 | 25 to 100 | – | – | – | – | + (activity was measured to be greater than 5.0 μM) | + (activity was measured to be greater than 5.0 μM) | + (activity was measured to be greater than 5.0 μM) | ++ (activity was measured to be from 1.0 μM to 5.0 μM) | – | – | – | –
4 | COc1ccc(Cl)cc1C1(F)CCN(CC2CCOCC2)CC1 [Compound 418] | – | – | – | – | < 25 | < 25 | < 25 | 25 to 100 | + (activity was measured to be greater than 5.0 μM) | ++ (activity was measured to be from 1.0 μM to 5.0 μM) | + (activity was measured to be greater than 5.0 μM) | ++ (activity was measured to be from 1.0 μM to 5.0 μM) | – | – | – | –
5 | COc1ccc(F)cc1C1CCN(C2CCCCCC2)CC1 [Compound 176] | 25 to 100 | 25 to 100 | < 25 | 25 to 100 | – | – | – | – | ++ (activity was measured to be from 1.0 μM to 5.0 μM) | +++ (activity was measured to be less than 1.0 μM) | + (activity was measured to be greater than 5.0 μM) | +++ (activity was measured to be less than 1.0 μM) | – | – | – | –
6 | CNC(=O)c1ccc(-c2ccc(OC)c(C3CCN(C4CCOCC4)CC3)c2)cc1Cl [Compound 11] | < 25 | < 25 | < 25 | 25 to 100 | – | – | – | – | + (activity was measured to be greater than 5.0 μM) | + (activity was measured to be greater than 5.0 μM) | + (activity was measured to be greater than 5.0 μM) | ++ (activity was measured to be from 1.0 μM to 5.0 μM) | – | – | – | –
7 | COc1ccc(Cl)cc1C1CCN(C2CCC(=NOc3ccccc3)CC2)CC1 (stereo not drawn) [Compound 336] | – | – | – | – | – | – | – | – | + (activity was measured to be greater than 5.0 μM) | ++ (activity was measured to be from 1.0 μM to 5.0 μM) | + (activity was measured to be greater than 5.0 μM) | +++ (activity was measured to be less than 1.0 μM) | + (efficacy was calculated to be less than 25%) | ++ (efficacy was calculated to be from 100% to 25%) | + (efficacy was calculated to be less than 25%) | ++ (efficacy was calculated to be from 100% to 25%)

Continued, in another order:

Row | Emax (M2 muscarinic receptor; [1]) [%] | Emax (M1 muscarinic receptor; [1]) [%] | Emax (M3 muscarinic receptor; [1]) [%] | Emax (M4 muscarinic receptor; [1]) [%] | Emax (M2 muscarinic receptor; [2]) [%] | Emax (M1 muscarinic receptor; [2]) [%] | Emax (M3 muscarinic receptor; [2]) [%] | Emax (M4 muscarinic receptor; [2]) [%] | Compound | M2 Activity (M2 muscarinic receptor) | M1 Activity (M1 muscarinic receptor) | M3 Activity (M3 muscarinic receptor) | M4 Activity (M4 muscarinic receptor) | M2 Efficacy (M2 muscarinic receptor; [1]) | M1 Efficacy (M1 muscarinic receptor; [1]) | M3 Efficacy (M3 muscarinic receptor; [1]) | M4 Efficacy (M4 muscarinic receptor; [1])
8 | < 25 | < 25 | < 25 | < 25 | – | – | – | – | CCN(CC)C(=O)c1ccc(-c2ccc(OC)c(C3CCN([C@H]4C[C@H]5CC[C@H]4C5)CC3)c2)cc1 [Compound 98] | + (activity was measured to be greater than 5.0 μM) | + (activity was measured to be greater than 5.0 μM) | + (activity was measured to be greater than 5.0 μM) | ++ (activity was measured to be from 1.0 μM to 5.0 μM) | – | – | – | –
9 | < 25 | 25 to 100 | < 25 | 25 to 100 | – | – | – | – | c1ccc(C2CCN([C@H]3C[C@H]4CC[C@H]3C4)CC2)c(-c2ccc3c(c2)OCO3)c1 [Compound 195] | + (activity was measured to be greater than 5.0 μM) | + (activity was measured to be greater than 5.0 μM) | + (activity was measured to be greater than 5.0 μM) | +++ (activity was measured to be less than 1.0 μM) | – | – | – | –
10 | < 25 | < 25 | < 25 | 25 to 100 | – | – | – | – | c1ccc(COc2ccccc2C2CCN([C@H]3C[C@H]4CC[C@H]3C4)CC2)cc1 [Compound 114] | + (activity was measured to be greater than 5.0 μM) | + (activity was measured to be greater than 5.0 μM) | + (activity was measured to be greater than 5.0 μM) | ++ (activity was measured to be from 1.0 μM to 5.0 μM) | – | – | – | –
11 | – | – | – | – | < 25 | 25 to 100 | < 25 | 25 to 100 | COc1ccc(-c2ccc(C(C)(C)C#N)cc2)cc1C1CCN(C2C[C@H]3CC[C@H]2C3)CC1 (stereo partly drawn) [Compound 403] | + (activity was measured to be greater than 5.0 μM) | + (activity was measured to be greater than 5.0 μM) | + (activity was measured to be greater than 5.0 μM) | ++ (activity was measured to be from 1.0 μM to 5.0 μM) | – | – | – | –
12 | < 25 | < 25 | < 25 | < 25 | – | – | – | – | COc1ccccc1C1CCN(C2CCC(C(C)(C)C)CC2)CC1 (stereo not drawn) [Compound 152] | + (activity was measured to be greater than 5.0 μM) | + (activity was measured to be greater than 5.0 μM) | + (activity was measured to be greater than 5.0 μM) | + (activity was measured to be greater than 5.0 μM) | – | – | – | –

From patent publication US7880007B2, “Bicyclic substituted phenyl piperidine modulators of muscarinic receptors” (Vertex Pharmaceuticals Incorporated, priority 2004, dated 2011)
